# Results reported in US20110130386A1, “DNA-PK INHIBITORS” (priority 2008, published 2011).
# Where two headings read alike, the source gives them in different places.
# How the values were obtained:
# cells = conditions: Rosenzweig et al. 1999; cited from earlier work
# PI 3-kinase = conditions: stated as the same as for DNA-PK; cited from earlier work
# HeLa cells = assay: Survival Enhancement Ratio (clonogenic survival after 2 Gray irradiation); type: cell-based, human; conditions: example compound of WO 03/024949; concentration not given
# Method: The Survival Enhancement Ratio (SER) is a ratio of the enhancement of cell kill elicited by the DNA-PK inhibitor after 2 Grays of irradiation compared to […]. DNA-PK inhibitors were used at a concentration of 25, 50, 100 and/or 500 nM. Radiation was delivered by a Faxitron 43855D machine at a dose rate of 1 Gy pre minute The SER at 2 Gray irradiation was calculated from the formula:
# The degree of cell killing was monitored by a standard clonogenic survival assay. Briefly, tissue culture treated 6-well plates were seeded with HeLa cells at an appropriate concentration to give 100-200 colonies per well and returned to the incubator in order to allow the cells to attach. Four hours later, compound or vehicle control was added to the cells. The cells were then incubated for 1 hour in the presence of inhibitor prior to irradiation at 2 Gray using a Faxitron 43855D cabinet X-ray machine. The cells were then incubated for a further 16 hours before the media was replaced with fresh media in the absence of DNA-PK inhibitor. After 8 days, colonies formed were fixed and stained with Giemsa (Sigma, Poole, UK) and scored using an automated colony counter (Oxford Optronics Ltd, Oxford, UK). The data was calculated as described above.
# Mammalian DNA-PK = Mammalian DNA-PK (Homo sapiens, UniProt P78527); assay: DNA-PK inhibition assay (ELISA of p53 Ser15 phosphorylation of GST-p53N66); type: biochemical, Mammalian (isolated from HeLa cell nuclear extract)
# Method: In order to assess the inhibitory action of the compounds against DNA-PK in vitro, the following assay was used to determine IC50 values.
# To the assay mix, varying concentrations of inhibitor (in DMSO at a final concentration of 1%) were added. After 10 minutes of incubation, ATP was added to give a final concentration of […] along with a 30 mer double stranded DNA oligonucleotide (final concentraion of 0.5 ng/ml) to initiate the reaction. After 1 hour with shaking, 150 μl of phosphate buffered saline (PBS) was added to the reaction and 5 μl then transferred to a 96 well opaque white plate containing 45 μl of PBS per well where the GSTp53N66 substrate was allowed to bind to the wells for 1 hour. To detect the phosphorylation event on the serine 15 residue of p53 elicited by DNA-PK a p53 phosphoserine-15 antibody (Cell Signaling Technology) was used in a basic ELISA procedure. An anti-rabbit HRP conjugated secondary antibody (Pierce) was then employed in the ELISA before the addition of chemiluminescence reagent. (NEN Renaissance) to detect the signal as measured by chemiluminescent counting via a TopCount NXT (Packard).
# The enzyme activity for each compound is then calculated using the following equation: […]
# The results are discussed below as IC50 values (the concentration at which 50% of the enzyme activity is inhibited). These are determined over a range of different concentrations, normally from 10 μM down to 0.001 μM. Such IC50 values are used as comparative values to identify increased compound potencies.
# [1] = DNA-PK from HeLa nuclear extract, mean value, read-out: mean IC50
Structure (SMILES),IC50 (Mammalian DNA-PK; [1]),also measured
O=c1cc(N2CCOCC2)oc2c(-c3ccccc3)cccc12 [LY294002],,sensitisation of cells to the effects of IR (cells): weakly sensitise cells to the effects of IR; IC50 (PI 3-kinase): ~1000 nM
O=c1cc(N2CCOCC2)oc2c(-c3cccc4c3sc3ccccc34)cccc12 [reference compound],,SER (HeLa cells): 1.3; IC50 (Mammalian DNA-PK): 10 to 12 nM
CN(C)C1CCN(Cc2ccc(-c3cccc4c(=O)cc(N5CCOCC5)oc34)c3sc4ccccc4c23)CC1 [4ae],177 nM,
O=c1cc(N2CCOCC2)oc2c(-c3ccc(CNCc4ccco4)c4c3sc3ccccc34)cccc12 [4bh],222 nM,
C[C@@H]1COCCN1Cc1ccc(-c2cccc3c(=O)cc(N4CCOCC4)oc23)c2sc3ccccc3c12 [4ak],912 nM,
CN(CC(=O)O)Cc1ccc(-c2cccc3c(=O)cc(N4CCOCC4)oc23)c2sc3ccccc3c12 [4ac],238 nM,
O=c1cc(N2CCOCC2)oc2c(-c3ccc(CN4CC[C@@H](F)C4)c4c3sc3ccccc34)cccc12 [4bp],170 nM,
O=C(C1CC1)N1CCN(Cc2ccc(-c3cccc4c(=O)cc(N5CCOCC5)oc34)c3sc4ccccc4c23)CC1 [4ag],251 nM,
O=c1cc(N2CCOCC2)oc2c(-c3ccc(CN4CCCC(F)(F)C4)c4c3sc3ccccc34)cccc12 [4az],2020 nM,

# Further lines, with some results ahead:
IC50 (Mammalian DNA-PK; [1]),Structure (SMILES),also measured
48.6 nM,CN1CCCC1CCNCc1ccc(-c2cccc3c(=O)cc(N4CCOCC4)oc23)c2sc3ccccc3c12 (centres unmarked) [4av],
68.9 nM,O=c1cc(N2CCOCC2)oc2c(-c3ccc(CN4CCCO4)c4c3sc3ccccc34)cccc12 [4as],
91.7 nM,O=c1cc(N2CCOCC2)oc2c(-c3ccc(CNCc4cc[nH]n4)c4c3sc3ccccc34)cccc12 [4be],
102 nM,O=c1cc(N2CCOCC2)oc2c(-c3ccc(CN4CCOCC4)c4c3sc3ccccc34)cccc12 [4ai],
98.5 nM,O=c1cc(N2CCOCC2)oc2c(-c3ccc(CNCc4cccnc4)c4c3sc3ccccc34)cccc12 [4ch],
3.86 nM,O=c1cc(N2CCOCC2)oc2c(-c3ccc(CN4CCCN(CCO)CC4)c4c3sc3ccccc34)cccc12 [4ad],
98.6 nM,O=c1cc(N2CCOCC2)oc2c(-c3ccc(CN4CCC[C@H]4CO)c4c3sc3ccccc34)cccc12 [4by],
46.2 nM,Cn1nccc1CNCc1ccc(-c2cccc3c(=O)cc(N4CCOCC4)oc23)c2sc3ccccc3c12 [4bl],
62.5 nM,O=c1cc(N2CCOCC2)oc2c(-c3ccc(CNCCN4CCCCC4)c4c3sc3ccccc34)cccc12 [4co],
